Experimental data: paper PMC4167715 (Biochemistry, 2013)

What was measured:
[1] = target: E. coli class II fructose 1,6-bisphosphate aldolase (EcFBA) (Escherichia coli, UniProt P0AB71); assay: coupled fluorescence FBP cleavage assay, single concentration; format: biochemical; conditions: read-out: % inhibition at 25 μM
[2] = target: M. tuberculosis class II fructose 1,6-bisphosphate aldolase (MtFBA) (Mycobacterium tuberculosis, UniProt P9WQA3); assay: X-ray crystal structure; format: binding
[3] = target: S. aureus class II fructose 1,6-bisphosphate aldolase (SaFBA) (Staphylococcus aureus, UniProt Q5HE75); assay: biochemical; conditions: read-out: % inhibition at 25 μM
Sequence of S. aureus class II fructose 1,6-bisphosphate aldolase (SaFBA) (Q5HE75 whole entry): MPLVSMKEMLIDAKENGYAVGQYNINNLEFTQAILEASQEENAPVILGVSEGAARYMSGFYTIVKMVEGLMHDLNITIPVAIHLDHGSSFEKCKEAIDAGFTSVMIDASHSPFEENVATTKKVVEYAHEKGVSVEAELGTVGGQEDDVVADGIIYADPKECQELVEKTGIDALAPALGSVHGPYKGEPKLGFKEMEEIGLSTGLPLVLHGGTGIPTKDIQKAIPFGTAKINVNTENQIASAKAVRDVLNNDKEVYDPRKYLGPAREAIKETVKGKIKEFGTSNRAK

Sequence of E. coli class II fructose 1,6-bisphosphate aldolase (EcFBA) (P0AB71 2-359): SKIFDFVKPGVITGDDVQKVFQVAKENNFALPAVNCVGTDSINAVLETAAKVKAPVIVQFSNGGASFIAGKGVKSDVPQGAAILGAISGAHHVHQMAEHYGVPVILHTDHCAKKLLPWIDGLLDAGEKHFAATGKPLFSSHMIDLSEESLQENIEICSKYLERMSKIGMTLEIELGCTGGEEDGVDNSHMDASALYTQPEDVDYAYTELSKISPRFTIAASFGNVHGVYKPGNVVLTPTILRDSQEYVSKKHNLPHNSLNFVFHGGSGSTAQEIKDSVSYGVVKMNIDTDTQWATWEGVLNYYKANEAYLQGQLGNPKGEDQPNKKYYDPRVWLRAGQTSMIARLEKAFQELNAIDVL
Sequence of M. tuberculosis class II fructose 1,6-bisphosphate aldolase (MtFBA) (P9WQA3 whole entry): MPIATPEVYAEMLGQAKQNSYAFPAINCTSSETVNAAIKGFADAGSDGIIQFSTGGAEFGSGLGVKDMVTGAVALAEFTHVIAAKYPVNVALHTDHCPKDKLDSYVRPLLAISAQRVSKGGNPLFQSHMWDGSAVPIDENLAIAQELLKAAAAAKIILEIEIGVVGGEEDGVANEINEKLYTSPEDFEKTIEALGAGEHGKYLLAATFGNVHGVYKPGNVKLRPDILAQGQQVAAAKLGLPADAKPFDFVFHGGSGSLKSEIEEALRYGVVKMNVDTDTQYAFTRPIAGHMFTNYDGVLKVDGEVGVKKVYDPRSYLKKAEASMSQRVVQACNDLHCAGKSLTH

## O=C(O)c1ccc2cccc(O)c2n1 [HCA, 8-hydroxyquinoline-2-carboxylic acid]
[1]
  inhibition at 25 µM: 42.2 ± 2.8%
[2]
  Kd: 70.8 ± 2.7 µM
[3]
  inhibition at 25 µM: 64.3 ± 0.6%
